Patent US9662328B2, “Targeting human thymidylate kinase induces DNA repair toxicity in malignant tumor cells” (NATIONAL YANG-MING UNIVERSITY, priority 2010, dated 2017)
Where “and” joins values, the source holds several entries; their conditions need not be identical. Equal entries are not always repeated.

Legend:
hTMPK [1] = target: T1, hTMPK (Homo sapiens, UniProt P23919); assay: In vitro inhibitory activity against human TMPK at 2 μM; type: biochemical; settings: test compounds at 2 μM concentration
T1 sequence (P23919 1-212): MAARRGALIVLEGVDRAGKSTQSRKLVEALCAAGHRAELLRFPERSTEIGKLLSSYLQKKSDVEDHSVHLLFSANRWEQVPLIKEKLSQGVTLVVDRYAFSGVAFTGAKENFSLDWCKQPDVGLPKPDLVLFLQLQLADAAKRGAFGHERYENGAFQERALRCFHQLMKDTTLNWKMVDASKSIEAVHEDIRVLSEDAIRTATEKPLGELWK
Description: (§1) The TMPK reaction was started by adding purified hTMPK in 50 μl of TMPK assay buffer (100 mM Tris-HCl, pH 7.5, 100 mM KCl, 10 mM MgCl2, 50 μM ATP and 100 μM dTMP) in 96 wells plate at 25° C. for 10 min and terminated by adding 200 μl of DTNB (100 μM), followed by transferring 10 μl of reaction solution to a white 96-wellplate containing 90 μl of luciferase assay buffer (50 mM Glycine, 0.5 mM EDTA and 5 mM EDTA, pH 7.0, 0.1 μg of luciferase, 50 μM luciferin and 0.1% BSA). The luminescence was measured with a luminescence counter (Packard).
(§2) All reactions were performed in 96-well plates in an assay volume of 100 μl. The activity of hTMPK was measured at 25° C. using a modified NADH coupled colorimetric assay as described (Agarwal et al., 1978; Miyata et al., 2003; Ostermann et al., 2003), in which purified hTMPK was added to the buffer containing 100 mM Tris-HCl, pH 7.5, 100 mM KCl, 10 mM MgCl2, 0.5 mM phosphoenol pyruvate, 0.25 mM NADH, 5 units of lactate dehydrogenase, 4 units of pyruvate kinase, 1 mM ATP, and 200 μM dTMP. The change of NADH was measured by reading the absorbance at 340 nm. One unit of TMPK activity is defined as the conversion of […] of TMP to TDP per minute.
The in vitro inhibitory activities of test compounds (at 2 μM concentration) against human TMPK are shown in Table 3 and compared with that of YMU1 and YMU2.

[2] = tested on: Human RM osteosarcoma cells; assay: Colony formation analysis of osteosarcoma cells; type: cell-based; settings: for effect on suppressing colony formation, single agent: compound 5 μM or doxorubicin 20 nM alone, 2 days, replated for 1 week; for colony formation, combination with doxorubicin: compound 5 μM plus doxorubicin 20 nM
Description: FIG. 5. The effect of TMPK inhibitors alone or in combination with a chemotherapeutic agent on viability of osteosarcoma cells. (A) Human RM osteosarcoma cells (a representative bone cancer cells) were seeded at 2×10^4/35 mm dish and treated with Doxorubicin (20 nM), compound I-d-7 (5 μM), compound I-d-6 (5 μM) as indicated. After 2 days, medium was replaced with fresh medium without drug and cells were replated to a 24-well plate at 600 cells/well for 1 week for colony formation analysis.

HCT-116 p53−/− cells = assay: γH2AX foci staining to indicate DNA damage (genotoxicity); type: cell-based
Description: FIG. 1. TMPK knockdown has no genotoxicity but promoting doxorubicin-induced cell death in p53 proficient and deficient colon cancer cells. […] These cells were fixed for γH2AX foci staining to indicate DNA damage and Western blotting analysis. (B-C) FITC-labeled annexin V apoptosis assay. (B) p53(+/+) HCT-116 were and (−/−) HCT-116 cells were infected with or without lentiviral TMPK^shRNA for 72 hr, treated with 0.5 μM doxorubicin for 24 hr (C) Cells were with or without lentiviral TS^shRNA for 72 hr with a subsequent 1 μM doxorubicin treatment for 24 hr as indicated Cells were then stained with FITC-labeled annexin V and observed by fluorescent microscopy. Green-positive indicates apoptotic cell.
For γH2AX staining, cells were fixed with 4% paraformaldehyde for 30 min at room temperature and were incubated with TBS (50 mM Tris-HCl, pH 7.4, 150 mM NaCl) plus 0.3% Triton X-100 for 5 min. The coverslips were blocked with MAXblock™ (Active Motif) for 1 h at 37° C., followed by staining with primary antibodies: anti-γH2AX monoclonal antibody (1:1000), anti-Rad51 polyclonal
To understand the differential DNA damage effect of blocking thymidylate kinase (TMPK) and thymidylate synthase (TS) in colon cancer cells. TMPK or TS expression was depleted in colon cancer cells, HCT-116 p53^−/−, by infection with lentivirus expressing corresponding shRNA. […]

hTMPK [3] = target: T1, hTMPK; assay: IC50 determination by enzymatic assay; type: biochemical
Description: as §1, §2
In one embodiment, the IC50 values were determined by enzymatic assay.

hTMPK [4] = target: T1, hTMPK; assay: Inhibition constant (Ki) by NADH-coupled TMPK assay; type: biochemical; settings: pre-incubated with 0.5 μg purified hTMPK for 10 min
Description: as §2
For determination of inhibition constant (Ki value), the inhibitor at the indicated concentration was pre-incubated with 0.5 μg of purified hTMPK protein for 10 min, and the initial velocity of the TMPK reaction was measured in the presence of ATP (1 mM) and different concentrations of TMP (2-200 μM) or in the presence of TMP (200 μM) and different concentrations of ATP (5-1000 μM) using NADH-coupled TMPK assay as described in the Methods of the Invention section. The Ki value was calculated from an equation of Ki=[I]/(Vmax/Vmax^I−1) wherein [I] is the concentration of inhibitor, and Vmax^I is the maximal velocity in the presence of inhibitor.

MDA-MB231 cell = assay: Doxorubicin sensitization in MDA-MB231 cell treatment; type: cell-based; settings: compound at 2 μM
Description: Cells plated into a 96-well plate (10^3 cells/well) were treated and cell viability was measured by MTS assay (Promega) (Cory et al., 1991). An annexin V-fluorescein isothiocyanate (FITC) apoptosis kit (Calbiochem) was used to detect apoptosis.

Row | Compound | inhibition at 2 µM (hTMPK [1]) | effect on suppressing colony formation, single agent [2] | IC50 (hTMPK [3]) | other results
1 | CC(C)(C)OC(=O)N1CCN(C(=O)Cn2sc3ccc(F)cc3c2=O)CC1 [I-d-6, Tert-butyl 4-(2-(5-fluoro-3-oxobenzo[d]isothiazol-2(3H)-yl)acetyl)piperazine-1-carboxylate] | 87 ± 5% | significant effect on suppressing colony formation | – | colony formation, combination with doxorubicin [2]: further decreased colony formation
2 | O=c1[nH]c(=O)n([C@H]2C[C@H](O)[C@@H](CO)O2)cc1F [FdUrd, 5-fluoro-2′deoxyuridine] | – | – | – | DNA lesions in nuclei (γH2AX foci) (HCT-116 p53−/− cells; YMU1 2 μM for 2 days, FdUrd 2 μM for 1 day): gave DNA lesions in nuclei
3 | COc1cccc2c1C(=O)c1c(O)c3c(c(O)c1C2=O)C[C@@](O)(C(=O)CO)C[C@@H]3O[C@H]1C[C@H](N)[C@H](O)[C@H](C)O1 [doxorubicin, reference compound] | – | no effect | – | –
4 | O=C(NCC(=O)N1CCN(C(=O)Cn2sc3ccccc3c2=O)CC1)Nc1ccccc1 [I-e-5, 1-(2-Oxo-2-(4-(2-(3-oxobenzo[d]isothiazol-2(3H)-yl)acetyl)piperazin-1-yl)ethyl)-3-phenylurea] | 100 ± 7% | – | 1290 nM and 1730 nM | –
5 | Cc1cc(C)c2c(=O)n(CC(=O)N3CCN(C(=O)Cn4sc5ccccc5c4=O)CC3)sc2n1 [I-b-5, 4-[(3-Oxo-benzo[d]isothiazol-2-yl)acetyl]-1-[(4,6-dimethyl-3-15 oxoisothiazolo[5,4-b]pyridin-2-yl)acetyl]piperazine] | 79 ± 12% | – | – | Ki (hTMPK [4]): 170 ± 70 nM
6 | CC(C)(C)OC(=O)N1CCN(C(=O)Cn2sc3cc(F)ccc3c2=O)CC1 [I-d-7, Tert-butyl 4-(2-(6-fluoro-3-oxobenzo[d]isothiazol-2(3H)-yl)acetyl)piperazine-1-carboxylate] | 66 ± 7% | significant effect on suppressing colony formation | – | colony formation, combination with doxorubicin [2]: further decreased colony formation
7 | Cc1cc(O)nc2sn(CC(=O)N3CCN(C(=O)OC(C)(C)C)CC3)c(=O)c12 [I-a-5, Tert-butyl 4-[(6-hydroxy-4-methyl-3-oxoisothiazolo[5,4-b]pyridin-2(3H)-2-yl)acetyl]piperazine-1-carboxylate] | 93 ± 9% | – | 500 nM | –
8 | CCOC(=O)N1CCN(C(=O)Cn2sc3nc(C)cc(C)c3c2=O)CC1 [YMU1] | – | – | – | enhancement on doxorubicin sensitization (MDA-MB231 cell): 30 fold
9 | O=C(Cn1sc2ccccc2c1=O)N1CCN(C(=O)Cn2sc3ccccc3c2=O)CC1 [I-e-8, 1,4-Bis[(3-oxo-benzo[d]isothiazol-2-yl)acetyl]piperazine] | 89 ± 6% | – | 450 nM | –
10 | CCOC(=O)N1CCN(C(=O)Cn2sc3nc(C)cc(C)c3c2=O)CC1 [YMU1, reference compound] | 42 ± 15% | – | 2210 ± 60 nM | DNA lesions in nuclei (γH2AX foci) (HCT-116 p53−/− cells; human, 2 μM): not
